Test: Pre-bronchodilator FEV1 and percent predicted FEV1 by spirometry, change from baseline
Format: in vivo, human
Conditions: for Change from baseline in pre-bronchodilator FEV1, LS Mean (SE) / Change from baseline in pre-bronchodilator FEV1, LS Mean Diff vs. placebo (95% CI) / Change from baseline in pre-bronchodilator FEV1, Mean (SD): EOT (Week 12); for FEV1 change / improvement (in words): following ICS/LABA withdrawal, both cohorts
Procedure: Spirometry is a standard test to measure patients' lung function.
The primary endpoint was the proportion of patients with LOAC. The key secondary endpoint for the study was change in pre-bronchodilator FEV1 from baseline at EOT.
Reversibility is defined as an increase of the absolute FEV1 after administration of bronchodilator and is measured by spirometry as postbronchodilator increase in FEV1 in percent of the prebronchodilator FEV1. After spirometry for measuring prebronchodilator FEV1, participants were to receive 2-4 puffs of albuterol/salbutamol or levalbuterol/levosalbutamol from a primed MDI. The postbronchodilator spirometry may have been repeated several times within 30 minutes after administration of bronchodilator. Alternatively, and only if it was consistent with usual office practice (to be documented), reversibility may have been performed using inhalation of nebulized albuterol/salbutamol or levalbuterol/levosalbutamol.
Secondary endpoints included pre-bronchodilator FEV1 change from baseline at EOT, ACQ-5 score change from baseline, and AQLQ score change from baseline. Other secondary and exploratory endpoints are described in Table 2.

[1] = 400 mg TID, Week 12, baseline FeNO ≥35 ppb
[2] = 400 mg TID, Week 12, baseline IgA <2190 mg/L (median)
[3] = 400 mg TID, Week 12, baseline IgA ≥2190 mg/L (median)
[4] = 400 mg TID, Week 12, baseline IgE <100 IU/mL
[5] = 400 mg TID, Week 12, baseline IgE <121.85 IU/mL (median)
[6] = 400 mg TID, Week 12, baseline IgE ≥100 IU/mL
[7] = 400 mg TID, Week 12, baseline IgE ≥121.85 IU/mL (median)
[8] = 400 mg TID, Week 12, baseline blood eosinophils <0.15 10^9/L
[9] = 400 mg TID, Week 12, baseline blood eosinophils <0.3 10^9/L
[10] = 400 mg TID, Week 12, baseline blood eosinophils ≥0.15-<0.3 10^9/L
[11] = 400 mg TID, Week 12, baseline blood eosinophils ≥0.3 10^9/L
[12] = 400 mg TID, Week 12, baseline percent predicted FEV1 <77% (median)
[13] = 400 mg TID, Week 12, baseline percent predicted FEV1 <80%
[14] = 400 mg TID, Week 12, baseline percent predicted FEV1 ≥77% (median)
[15] = 400 mg TID, Week 12, baseline percent predicted FEV1 ≥80%
[16] = 400 mg TID, Week 12, baseline weight ≥60-<90 kg
[17] = 400 mg TID, Week 12, baseline weight ≥90 kg
[18] = 400 mg TID, Week 12, smoking history Former
[19] = 400 mg TID, Week 12, smoking history Never
[20] = 400 mg TID, low EOS (<0.15) and low FeNO (<25), mITT
[21] = 400 mg TID, Week 2, observed/LOCF imputed, mITT
[22] = 400 mg TID, Week 4, observed/LOCF imputed, mITT
[23] = 400 mg TID, Week 6, observed/LOCF imputed, mITT
[24] = 400 mg TID, Week 8, observed/LOCF imputed, mITT
[25] = 400 mg TID, Week 10, observed/LOCF imputed, mITT
[26] = 400 mg TID, Week 12 (EOT), MMRM supplementary analysis, mITT
[27] = 400 mg TID, Week 12 (EOT), MMRM, mITT
[28] = 400 mg TID, Week 12, observed/LOCF imputed, mITT
[29] = 400 mg TID, Week 12, reduced model, mITT

CC(C)(C=C(C#N)C(=O)N1CCC[C@@H](n2nc(-c3ccc(Oc4ccccc4)cc3F)c3c(N)ncnc32)C1)N1CCN(C2COC2)CC1 (mixture of isomers) [rilzabrutinib, (R)-2-[3-[4-amino-3-(2-fluoro-4-phenoxy-phenyl)pyrazolo[3,4-d]pyrimidin-1-yl]piperidine-1-carbonyl]-4-methyl-4-[4-(oxetan-3-yl)piperazin-1-yl]pent-2-enenitrile]
Pre-bronchodilator FEV1 change from baseline, LS Mean Diff vs. placebo [1]: -0.12 L
Pre-bronchodilator FEV1 change from baseline, Mean [1]: -0.07 L
Pre-bronchodilator FEV1 change from baseline, LS Mean [2]: -0.12 L
Pre-bronchodilator FEV1 change from baseline, LS Mean Diff vs. placebo [2]: -0.09 L
Pre-bronchodilator FEV1 change from baseline, Mean [2]: -0.12 L
Pre-bronchodilator FEV1 change from baseline, LS Mean [3]: -0.15 L
Pre-bronchodilator FEV1 change from baseline, LS Mean Diff vs. placebo [3]: -0.09 L
Pre-bronchodilator FEV1 change from baseline, Mean [3]: -0.17 L
Pre-bronchodilator FEV1 change from baseline, LS Mean [4]: -0.10 L
Pre-bronchodilator FEV1 change from baseline, LS Mean Diff vs. placebo [4]: -0.11 L
Pre-bronchodilator FEV1 change from baseline, Mean [4]: -0.20 L
Pre-bronchodilator FEV1 change from baseline, LS Mean [5]: -0.16 L
Pre-bronchodilator FEV1 change from baseline, LS Mean Diff vs. placebo [5]: -0.08 L
Pre-bronchodilator FEV1 change from baseline, Mean [5]: -0.17 L
Pre-bronchodilator FEV1 change from baseline, LS Mean [6]: -0.13 L
Pre-bronchodilator FEV1 change from baseline, LS Mean Diff vs. placebo [6]: -0.07 L
Pre-bronchodilator FEV1 change from baseline, Mean [6]: -0.12 L
Pre-bronchodilator FEV1 change from baseline, LS Mean [7]: -0.33 L
Pre-bronchodilator FEV1 change from baseline, LS Mean Diff vs. placebo [7]: -0.11 L
Pre-bronchodilator FEV1 change from baseline, Mean [7]: -0.13 L
Pre-bronchodilator FEV1 change from baseline, LS Mean [8]: -0.17 L
Pre-bronchodilator FEV1 change from baseline, LS Mean Diff vs. placebo [8]: -0.05 L
Pre-bronchodilator FEV1 change from baseline, Mean [8]: -0.17 L
Pre-bronchodilator FEV1 change from baseline, LS Mean [9]: -0.13 L
Pre-bronchodilator FEV1 change from baseline, LS Mean Diff vs. placebo [9]: -0.05 L
Pre-bronchodilator FEV1 change from baseline, Mean [9]: -0.15 L
Pre-bronchodilator FEV1 change from baseline, LS Mean [10]: -0.04 L
Pre-bronchodilator FEV1 change from baseline, LS Mean Diff vs. placebo [10]: -0.04 L
Pre-bronchodilator FEV1 change from baseline, Mean [10]: -0.10 L
Pre-bronchodilator FEV1 change from baseline, LS Mean [11]: -0.16 L
Pre-bronchodilator FEV1 change from baseline, LS Mean Diff vs. placebo [11]: -0.20 L
Pre-bronchodilator FEV1 change from baseline, Mean [11]: -0.16 L
Pre-bronchodilator FEV1 change from baseline, LS Mean [12]: -0.03 L
Pre-bronchodilator FEV1 change from baseline, LS Mean Diff vs. placebo [12]: -0.04 L
Pre-bronchodilator FEV1 change from baseline, Mean [12]: -0.10 L
Pre-bronchodilator FEV1 change from baseline, LS Mean [13]: -0.09 L
Pre-bronchodilator FEV1 change from baseline, LS Mean Diff vs. placebo [13]: -0.08 L
Pre-bronchodilator FEV1 change from baseline, Mean [13]: -0.13 L
Pre-bronchodilator FEV1 change from baseline, LS Mean [14]: -0.21 L
Pre-bronchodilator FEV1 change from baseline, LS Mean Diff vs. placebo [14]: -0.13 L
Pre-bronchodilator FEV1 change from baseline, Mean [14]: -0.19 L
Pre-bronchodilator FEV1 change from baseline, LS Mean [15]: -0.20 L
Pre-bronchodilator FEV1 change from baseline, LS Mean Diff vs. placebo [15]: -0.11 L
Pre-bronchodilator FEV1 change from baseline, Mean [15]: -0.17 L
Pre-bronchodilator FEV1 change from baseline, LS Mean [16]: -0.13 L
Pre-bronchodilator FEV1 change from baseline, LS Mean Diff vs. placebo [16]: -0.07 L
Pre-bronchodilator FEV1 change from baseline, Mean [16]: -0.15 L
Pre-bronchodilator FEV1 change from baseline, LS Mean [17]: -0.15 L
Pre-bronchodilator FEV1 change from baseline, LS Mean Diff vs. placebo [17]: -0.05 L
Pre-bronchodilator FEV1 change from baseline, Mean [17]: -0.17 L
Pre-bronchodilator FEV1 change from baseline, LS Mean (400 mg TID, Week 12, female): -0.11 L
Pre-bronchodilator FEV1 change from baseline, LS Mean Diff vs. placebo (400 mg TID, Week 12, female): -0.09 L
Pre-bronchodilator FEV1 change from baseline, Mean (400 mg TID, Week 12, female): -0.14 L
Pre-bronchodilator FEV1 change from baseline, LS Mean (400 mg TID, Week 12, male): -0.15 L
Pre-bronchodilator FEV1 change from baseline, LS Mean Diff vs. placebo (400 mg TID, Week 12, male): -0.09 L
Pre-bronchodilator FEV1 change from baseline, Mean (400 mg TID, Week 12, male): -0.16 L
Pre-bronchodilator FEV1 change from baseline, LS Mean [18]: -0.12 L
Pre-bronchodilator FEV1 change from baseline, LS Mean Diff vs. placebo [18]: -0.05 L
Pre-bronchodilator FEV1 change from baseline, Mean [18]: -0.21 L
Pre-bronchodilator FEV1 change from baseline, LS Mean [19]: -0.13 L
Pre-bronchodilator FEV1 change from baseline, LS Mean Diff vs. placebo [19]: -0.09 L
Pre-bronchodilator FEV1 change from baseline, Mean [19]: -0.15 L
Difference vs. placebo, LS mean change in pre-bronchodilator FEV1 (L) at Week 12 (400 mg TID, 95% CI −0.21, 0.03, p=0.1523): -0.09 L
Change from baseline in pre-bronchodilator FEV1, LS Mean (SE) (400 mg TID, all others, mITT): -0.09 L
Change from baseline in pre-bronchodilator FEV1, LS Mean Diff vs. placebo (95% CI) (400 mg TID, all others, mITT): -0.07 L
Change from baseline in pre-bronchodilator FEV1, Mean (SD) (400 mg TID, all others, mITT, n=30): -0.11 L
Change from baseline in pre-bronchodilator FEV1, LS Mean (SE) [20]: -0.20 L
Change from baseline in pre-bronchodilator FEV1, LS Mean Diff vs. placebo (95% CI) [20]: -0.14 L
Change from baseline in pre-bronchodilator FEV1, Mean (SD) (400 mg TID, low EOS (<0.15) and low FeNO (<25), mITT, n=16): -0.24 L
LS Mean change from baseline in pre-bronchodilator FEV1 (L) at Week 12 (400 mg TID, N=64, mITT): −0.13 (0.05) L
Pre-bronchodilator FEV1, mean [21]: 2.47 L
Pre-bronchodilator FEV1, median [21]: 2.37 L
Pre-bronchodilator FEV1 change from baseline, LS Mean [21]: -0.05 L
Pre-bronchodilator FEV1 change from baseline, LS Mean Diff vs. placebo [21]: -0.04 L
Pre-bronchodilator FEV1 change from baseline, Mean [21]: -0.04 L
Pre-bronchodilator FEV1 change from baseline, median [21]: -0.02 L
Pre-bronchodilator FEV1, mean [22]: 2.58 L
Pre-bronchodilator FEV1, median [22]: 2.50 L
Pre-bronchodilator FEV1 change from baseline, LS Mean [22]: -0.01 L
Pre-bronchodilator FEV1 change from baseline, LS Mean Diff vs. placebo [22]: 0.05 L
Pre-bronchodilator FEV1 change from baseline, Mean [22]: 0.02 L
Pre-bronchodilator FEV1 change from baseline, median [22]: -0.01 L
Pre-bronchodilator FEV1, mean [23]: 2.52 L
Pre-bronchodilator FEV1, median [23]: 2.37 L
Pre-bronchodilator FEV1 change from baseline, LS Mean [23]: -0.07 L
Pre-bronchodilator FEV1 change from baseline, LS Mean Diff vs. placebo [23]: 0.04 L
Pre-bronchodilator FEV1 change from baseline, Mean [23]: -0.07 L
Pre-bronchodilator FEV1 change from baseline, median [23]: -0.09 L
Pre-bronchodilator FEV1, mean [24]: 2.41 L
Pre-bronchodilator FEV1, median [24]: 2.38 L
Pre-bronchodilator FEV1 change from baseline, LS Mean [24]: -0.07 L
Pre-bronchodilator FEV1 change from baseline, LS Mean Diff vs. placebo [24]: 0.03 L
Pre-bronchodilator FEV1 change from baseline, Mean [24]: -0.12 L
Pre-bronchodilator FEV1 change from baseline, median [24]: -0.10 L
Pre-bronchodilator FEV1, mean [25]: 2.53 L
Pre-bronchodilator FEV1, median [25]: 2.50 L
Pre-bronchodilator FEV1 change from baseline, LS Mean [25]: -0.09 L
Pre-bronchodilator FEV1 change from baseline, LS Mean Diff vs. placebo [25]: 0.00 L
Pre-bronchodilator FEV1 change from baseline, Mean [25]: -0.10 L
Pre-bronchodilator FEV1 change from baseline, median [25]: -0.09 L
Change from baseline in pre-bronchodilator FEV1, Mean [26]: -0.14 L
Change from baseline in pre-bronchodilator FEV1, Median [26]: -0.09 L
Pre-bronchodilator FEV1, Mean [26]: 2.46 L
Pre-bronchodilator FEV1, Median [26]: 2.40 L
Change from baseline in pre-bronchodilator FEV1, LS Mean [27]: -0.16 L
Change from baseline in pre-bronchodilator FEV1, LS Mean diff vs. placebo [27]: -0.08 L
Change from baseline in pre-bronchodilator FEV1, Mean [28]: -0.15 L
Change from baseline in pre-bronchodilator FEV1, Median [28]: -0.12 L
Pre-bronchodilator FEV1, Mean [28]: 2.43 L
Pre-bronchodilator FEV1, Median [28]: 2.39 L
Pre-bronchodilator FEV1, mean [28]: 2.43 L
Pre-bronchodilator FEV1, median [28]: 2.39 L
Pre-bronchodilator FEV1 change from baseline, LS Mean [28]: -0.13 L
Pre-bronchodilator FEV1 change from baseline, LS Mean Diff vs. placebo [28]: -0.09 L
Pre-bronchodilator FEV1 change from baseline, Mean [28]: -0.15 L
Pre-bronchodilator FEV1 change from baseline, median [28]: -0.12 L
Change from baseline in pre-bronchodilator FEV1, LS Mean [29]: -0.13 L
Change from baseline in pre-bronchodilator FEV1, LS Mean diff vs. placebo [29]: -0.09 L
FEV1 change / improvement (in words): did not exhibit any change in FEV1
FEV1 change / improvement (in words) (listed as Rilzabrutinib): not associated with an improvement in FEV1 values

Source: patent US20260345619A1 (Principia Biopharma Inc., priority 2023, published 2026)
